This note sets out measurements from patent US6251894A, “1-(1,2-disubstituted piperidinyl)-4 (fused imidazole)-piperidine derivatives” (Janssen Pharmaceuticals N.V., priority 1995, dated 2001).

Read-outs that look alike come from different tables or passages of the source.

Test [1] concerns Substance P Induced Relaxation of the Pig Coronary Arteries. The experiment in a line: Antagonism of substance P induced relaxation of the pig coronary arteries. The following applies: 30 min incubation. Here is the method:
Antagonism of Substance P Induced Relaxation of the Pig Coronary Arteries
Segments of coronary arteries taken from pigs (killed by injection of an overdose of sodium pentobarbital) were inverted and mounted for recording of isometric tension in organ baths (volume 20 ml) with the endothelium at the outside. The preparations were bathed in Krebs-Henseleit solution. The solution was kept at 37° C. and gassed with a mixture of O2 /CO2 (95/5). After stabilisation of the preparations, prostaglandin F2α (10^-5 M) was administered to induce a contraction. This was repeated until contractile responses became stable. Then prostaglandin F2α was again administered and substance P (3×10^-10 M and 10^-9 M cumulatively) was added. Substance P induced endothelium dependent relaxations. After washing away the agonists, a known concentration of a compound of formula (I) was added. After an incubation period of 30 minutes, prostaglandin F2α (10^-5 M) and the same concentrations of substance P as described above were again administered in the presence of the compound to be tested.

Test [2] has as its system Substance P Induced Plasma Extravasation. The test can be described thus: Antagonism of substance P induced plasma extravasation in guinea-pigs. The following applies: Cavia porcellus, sc, s.c., 1 hour prior to substance P. The format is in vivo, guinea-pig. As to the method: Antagonism of Substance P Induced Plasma Extravasation in Guinea-pigs
Plasma travasation was induced by injection of substance P (2 mg/kg) in the femoral artery of female guinea-pigs. Evans Blue dye (30 mg/kg) was injected simultaneously. The test compound or solvent was administered subcutaneous (s.c.) or orally (p.o.) 1 hour prior to substance P injection. 10 minutes after challenge, the animals were checked for blue colouring (a direct measure for plasma extravasation) of the nose, the forepaws, and the conjunctiva. 30 minutes after challenge, the animals were sacrificed by CO2 gas inhalation and checked for blue colouring of the trachea and the urinary bladder. […]

The mark [3] stands for this setting: test compound concentration 3 × 10^-9 (unit not given).
[4] abbreviates: 10 min, conjunctiva, read-out: lowest active dose (LAD), conjunctiva.
Setting [5] is: 10 min, forepaws, read-out: lowest active dose (LAD), forepaws.
Setting [6] is: 10 min, nose, read-out: lowest active dose (LAD), nose.
[7] abbreviates: 0.5 h, trachea, read-out: lowest active dose (LAD), trachea.
The mark [8] stands for this setting: 0.5 h, urinary bladder, read-out: lowest active dose (LAD), urinary bladder.

`Cc1cc(C)cc(C(=O)N2CCC(N3CCC(=C4c5ccn(C)c5CCn5cc(C)nc54)CC3)CC2Cc2ccccc2)c1` (stereo not shown) [Compound 30]: the “% inhibition of the response to 10^-9 M substance P” value in test [1] (setting [3]) came to 15.3%.

Regarding `O=C(c1cc(C(F)(F)F)cc(C(F)(F)F)c1)N1CC[C@H](N2CCC(=C3c4ccccc4CCn4c3nc(CO)c4CO)CC2)C[C@H]1Cc1ccccc1` (relative stereo) [Compound 49], the “% inhibition of the response to 10^-9 M substance P” value in test [1] (setting [3]) was found to be 52.5%.

Consider `Cc1cc(C)cc(C(=O)N2CCC(N3CCC(=C4c5ccc(Cl)cc5CCn5ccnc54)CC3)CC2Cc2ccccc2)c1` (stereo not shown) [Compound 31], for which the “% inhibition of the response to 10^-9 M substance P” value in test [1] (setting [3]) worked out at 82.7%.

Take `O=C(c1cc(C(F)(F)F)cc(C(F)(F)F)c1)N1CCC(N2CCC(C3c4ccccc4CCn4c3nc3ccccc34)CC2)CC1Cc1ccccc1` (stereo not shown) [Compound 12]: in test [1] (test compound concentration 3 × 10^-8 (unit not given)), the “% inhibition of the response to 10^-9 M substance P” value came to 93.2%.

For the molecule `O=C(c1cccs1)N1CCC(N2CCC(C3c4ccccc4Cn4c3nc3ccccc34)CC2)CC1Cc1ccccc1` (stereo not shown) [Compound 91], the “% inhibition of the response to 10^-9 M substance P” value in test [1] (setting [3]) is recorded as 9.2%.

As for `COC(=O)c1cnc2n1CCc1ccccc1C2=C1CCN([C@H]2CCN(C(=O)c3cc(C)cc(C)c3)[C@@H](Cc3ccccc3)C2)CC1` (relative stereo) [Compound 40], the “% inhibition of the response to 10^-9 M substance P” value in test [1] (setting [3]) is 8.4%.

Regarding `Cc1cc(C)cc(C(=O)N2CC[C@H](N3CCC(=C4c5ccc(C)cc5CCn5ccnc54)CC3)C[C@@H]2Cc2ccccc2)c1` (relative stereo) [Compound 56], the “% inhibition of the response to 10^-9 M substance P” value in test [1] (setting [3]) amounted to 9.5%.

`Cc1cn2c(n1)C(=C1CCN([C@H]3CCN(C(=O)c4cc(C(F)(F)F)cc(C(F)(F)F)c4)[C@@H](Cc4ccccc4)C3)CC1)c1ccn(C)c1CC2` (relative stereo) [Compound 59]: in test [1] (setting [3]), the “% inhibition of the response to 10^-9 M substance P” value was 76.5%.

Consider `Cc1cc(C)cc(C(=O)N2CC[C@H](N3CCC(C4c5ccccc5Cn5c4nc4ccccc45)CC3)C[C@H]2Cc2ccccc2)c1` (stereo partly shown) [Compound 70], for which the “% inhibition of the response to 10^-9 M substance P” value in test [1] (setting [3]) is recorded as 31.2%.

For `Cc1cc(C)cc(C(=O)N2CC[C@H](N3CCC(=C4c5ccccc5CCn5c4nc(CO)c5CO)CC3)C[C@@H]2Cc2ccccc2)c1` (relative stereo) [Compound 61], in test [1] (setting [3]), the “% inhibition of the response to 10^-9 M substance P” value was 7.5%.

As to `O=C(Nc1cc(C(F)(F)F)cc(C(F)(F)F)c1)N1CC[C@@H](N2CCC(=C3c4ccccc4CCn4ccnc43)CC2)C[C@@H]1Cc1ccccc1` (relative stereo) [Compound 80], the “% inhibition of the response to 10^-9 M substance P” value in test [1] (setting [3]) came out at 10.9%.

For `Cc1cc(C)cc(C(=O)N2CC[C@@H](N3CCC4(CC3)c3ccccc3CCn3ccnc34)C[C@H]2Cc2ccccc2)c1` (relative stereo) [Compound 119, (±)-cis-4-(5,6-dihydrospiro[11H-imidazo[2,1-b][3]benzazepine-11,4'-piperidin]-1-yl)-1-(3,5-dimethylbenzoyl)-2-(phenylmethyl)piperidine], in test [1] (setting [3]), the “% inhibition of the response to 10^-9 M substance P” value was found to be 9.3%.

As to `O=C(c1cc(C(F)(F)F)cc(C(F)(F)F)c1)N1CC[C@@H](N2CCC(C3c4ccccc4CCn4c3nc3ccccc34)CC2)C[C@@H]1Cc1ccc(Cl)c(Cl)c1` (mixture of isomers) [Compound 63, (±)-trans-1-[3,5-bis(trifluoromethyl)benzoyl]-2-[(3,4-dichlorophenyl)methyl]-4-[4-(11,12-dihydro-6H-benzimidazo[2,1-b][3]benzazepin-6-yl)-1-piperidinyl]piperidine], the “% inhibition of the response to 10^-9 M substance P” value in test [1] (setting [3]) worked out at 61.4%.

`O=C(c1ccc2ccccc2c1)N1CCC(N2CCC(C3c4ccccc4Cn4c3nc3ccccc34)CC2)CC1Cc1ccccc1` (stereo not shown) [Compound 92]: the “% inhibition of the response to 10^-9 M substance P” value in test [1] (setting [3]) was 6.7%.

On to `O=C(c1cc(C(F)(F)F)cc(C(F)(F)F)c1)N1CCC(N2CCC(C3c4ccccc4CCn4c3nc3ccccc34)CC2)CC1Cc1ccc(Cl)c(Cl)c1` (stereo not shown) [Compound 64], for which the “% inhibition of the response to 10^-9 M substance P” value in test [1] (setting [3]) stood at 26.4%.

For `CC(C(=O)N1CC[C@@H](N2CCC(C3c4ccccc4Cn4c3nc3ccccc34)CC2)C[C@@H]1Cc1ccccc1)c1ccccc1` (stereo partly shown) [Compound 99], in test [1] (setting [3]), the “% inhibition of the response to 10^-9 M substance P” value turned out to be 18.2%.

With `O=C(c1ccc2ccccc2c1)N1CC[C@H](N2CCC(=C3c4ccccc4CCn4ccnc43)CC2)C[C@@H]1Cc1ccccc1` (relative stereo) [Compound 84], the “% inhibition of the response to 10^-9 M substance P” value in test [1] (setting [3]) came to 2.4%.

Take `Cc1cc(C)cc(C(=O)N2CC[C@H](N3CCC(=C4c5ccccc5CCn5c4nc4ccccc45)CC3)C[C@H]2Cc2ccccc2)c1` (relative stereo) [Compound 46]: the “% inhibition of the response to 10^-9 M substance P” value in test [1] (setting [3]) was found to be 54.3%.

Turning to `O=C(c1cc2cc(F)ccc2[nH]1)N1CC[C@H](N2CCC(=C3c4ccccc4CCn4ccnc43)CC2)C[C@@H]1Cc1ccccc1` (relative stereo) [Compound 89], in test [1] (setting [3]), the “% inhibition of the response to 10^-9 M substance P” value stood at 1.1%.

As for `Cc1cc(C)cc(C(=O)N2CCC(N3CCC(=C4c5ccccc5CCn5c(C)cnc54)CC3)CC2Cc2ccccc2)c1` (stereo not shown) [Compound 28], the “% inhibition of the response to 10^-9 M substance P” value in test [1] (setting [3]) turned out to be 37.4%.

Take `Cc1cc(C)cc(C(=O)N2CC[C@H](N3CCC(=C4c5ccccc5CCn5c(Cl)cnc54)CC3)C[C@@H]2Cc2ccccc2)c1` (relative stereo) [Compound 43]: the “% inhibition of the response to 10^-9 M substance P” value in test [1] (setting [3]) turned out to be 16%.

In the case of `Cc1cc(C)cc(C(=O)N2CCC(N3CCC(=C4c5cccc(C)c5CCn5ccnc54)CC3)CC2Cc2ccccc2)c1` (stereo not shown) [Compound 29], the “% inhibition of the response to 10^-9 M substance P” value in test [1] (setting [3]) was 8.1%.

For `O=C(c1ccc2[nH]ccc2c1)N1CC[C@@H](N2CCC(=C3c4ccccc4CCn4ccnc43)CC2)C[C@@H]1Cc1ccccc1` (relative stereo) [Compound 81], the “% inhibition of the response to 10^-9 M substance P” value in test [1] (setting [3]) amounted to 2.2%.

Take `O=C(c1cc(C(F)(F)F)cc(C(F)(F)F)c1)N1CCC(N2CCC(C3c4ccccc4CCn4c3nc3ccccc34)CC2)CC1Cc1ccc(F)c(F)c1` (stereo not shown) [Compound 67]: the “% inhibition of the response to 10^-9 M substance P” value in test [1] (setting [3]) was determined as 64.4%.

For the molecule `O=C(c1ccc2ccccc2c1)N1CC[C@@H](N2CCC(C3c4ccccc4Cn4c3nc3ccccc34)CC2)C[C@@H]1Cc1ccccc1` (stereo partly shown) [Compound 98], in test [1] (setting [3]), the “% inhibition of the response to 10^-9 M substance P” value is 23.2%.

Turning to `O=C(c1ccc2ccccc2c1)N1CC[C@@H](N2CCC(=C3c4ccccc4CCn4ccnc43)CC2)C[C@@H]1Cc1ccccc1` (relative stereo) [Compound 78], the “% inhibition of the response to 10^-9 M substance P” value in test [1] (setting [3]) is 7.5%.

As for `Cc1cc(C(=O)N2CC[C@@H](N3CCC(C4c5ccccc5Cn5c4nc4ccccc45)CC3)C[C@@H]2Cc2ccccc2)no1` (stereo partly shown) [Compound 97], the “% inhibition of the response to 10^-9 M substance P” value in test [1] (setting [3]) was 5.8%.

`O=C(c1cccc(C(F)(F)F)c1)N1CCC(N2CCC(C3c4ccccc4Cn4c3nc3ccccc34)CC2)CC1Cc1ccccc1` (stereo not shown) [Compound 74]: the “% inhibition of the response to 10^-9 M substance P” value in test [1] (setting [3]) amounted to 8.6%.

For the molecule `O=C(c1cc(C(F)(F)F)cc(C(F)(F)F)c1)N1CC[C@H](N2CCC(=C3c4ccccc4CCn4c3nc3ccccc34)CC2)C[C@@H]1Cc1ccccc1` (relative stereo) [Compound 71], the “% inhibition of the response to 10^-9 M substance P” value in test [1] (setting [3]) is 53.1%.

In the case of `Cc1cc(C)cc(C(=O)N2CC[C@H](N3CCC(=C4c5ccsc5CCn5ccnc54)CC3)C[C@@H]2Cc2ccccc2)c1` (relative stereo) [Compound 38], in test [1] (setting [3]), the “% inhibition of the response to 10^-9 M substance P” value is given as 27.1%.

Regarding `O=C(c1ccco1)N1CC[C@@H](N2CCC(=C3c4ccccc4CCn4ccnc43)CC2)C[C@@H]1Cc1ccccc1` (relative stereo) [Compound 77], the “% inhibition of the response to 10^-9 M substance P” value in test [1] (setting [3]) came to 3.2%.

As to `O=C(c1cnc2ccccc2n1)N1CCC(N2CCC(C3c4ccccc4Cn4c3nc3ccccc34)CC2)CC1Cc1ccccc1` (stereo not shown) [Compound 93], in test [1] (setting [3]), the “% inhibition of the response to 10^-9 M substance P” value is listed as 3.1%.

Take `Cc1cc(C)cc(C(=O)N2CCC(N3CCC(=C4c5ccccc5OCn5ccnc54)CC3)CC2Cc2ccccc2)c1` (stereo not shown) [Compound 104]: the “% inhibition of the response to 10^-9 M substance P” value in test [1] (setting [3]) was determined as 83.0%.

As to `O=C(c1cc(C(F)(F)F)cc(C(F)(F)F)c1)N1CC[C@H](N2CCC3(CC2)c2ccccc2CCn2ccnc23)C[C@@H]1Cc1ccccc1` (relative stereo) [Compound 117], the minimal effective dose in test [2] (setting [4]) is 2.5 mg/kg; in test [2] (setting [5]) it was 2.5 mg/kg; in test [2] (setting [6]), 2.5 mg/kg; in test [2] (setting [7]) it was 40 mg/kg; in test [2] (setting [8]), 10 mg/kg.

Consider `O=C(c1cc(C(F)(F)F)cc(C(F)(F)F)c1)N1CC[C@@H](N2CCC3(CC2)c2ccccc2CCn2ccnc23)C[C@@H]1Cc1ccccc1` (relative stereo) [Compound 118], for which the minimal effective dose in test [2] (setting [4]), in test [2] (setting [5]), in test [2] (setting [6]), in test [2] (setting [7]) and in test [2] (setting [8]) was 10 mg/kg in each case.
